Source: PubChem BioAssay AID1996
In brackets after ≈: the same amount, converted by molar mass.

conditions: buffer; pH 7.4; 200.0 µM

solubility kinetic	SMILES
41.8 µg/mL (≈ 133 µM)	CCN(CC)CC(O)COC(c1ccccc1)c1ccccc1 (stereo not given)
56.9 µg/mL (≈ 146 µM)	N#CCCN(C(=O)COC(=O)CSc1ccc(Cl)cc1)c1ccccc1
> 39.9 µg/mL	O=C(O)CC1SC(=Nc2ccc(O)cc2)NC1=O (stereo not given)
> 51.1 µg/mL	COc1cccc2[nH]c3c(N4CCC5(CC4)OCCO5)ncnc3c12
> 40.5 µg/mL	O=C1CN(C(=O)c2ccc(F)cc2)c2ccccc2N1
35.1 µg/mL (≈ 121 µM)	COC(=O)C1=C(O)/C(=C/c2cccc(OC)c2O)N=C1C
> 50.7 µg/mL	CN(C)C(CNC(=O)c1ccc([N+](=O)[O-])cc1Cl)c1ccco1 (stereo not given)
> 49 µg/mL	Cc1ccc(C(=O)N2CCC(C(=O)NCc3ccco3)CC2)cc1
> 42.6 µg/mL	O=C(O)c1nn(-c2cccc(C(F)(F)F)c2)ccc1=O
> 44.2 µg/mL	CC1CCCC(NC(=O)CNC(=O)c2cccs2)C1C (stereo not given)
> 39.2 µg/mL	CSC1=NC2(C)CCCCC2C12C=CC(=O)C=C2 (stereo not given)
3.5 µg/mL (≈ 11.9 µM)	COc1ccc(/C=C2\N=C(c3ccc(C)cc3)OC2=O)cc1
0.5 µg/mL (≈ 1.92 µM)	O=C(Nc1cccc([N+](=O)[O-])c1)C1C2CCCCC21 (stereo not given)
15.7 µg/mL (≈ 47.1 µM)	O=C(CS(=O)(=O)Cc1ccccc1)Nc1ccc2c(c1)OCO2
1.9 µg/mL (≈ 6.55 µM)	O=C(Nc1ccc(F)cc1)c1cc(Cl)sc1Cl
10 µg/mL (≈ 37.1 µM)	CCNc1nc(NCC)nc(N(CC)C(N)=S)n1
5.2 µg/mL (≈ 14.5 µM)	O=C(/C=C/c1ccc(OCc2cccc(Cl)c2)cc1)N1CCOCC1
> 45.3 µg/mL	COc1cccc(-c2cc(C(=O)NCC3CCCO3)on2)c1 (stereo not given)
> 51.7 µg/mL	CCC(CC)C(=O)Nc1nnc(SCC(=O)NC(C)(C)C)s1
> 25.1 µg/mL	CCOC(=O)c1cncc(O)c1

solubility kinetic	SMILES
2.3 µg/mL (≈ 6.43 µM)	CC1(C)Cc2c(sc3c2c(N)nc(=S)n3Cc2ccccc2)CO1
28.6 µg/mL (≈ 136 µM)	NC1=NC(=O)/C(=C\c2ccsc2)S1
40.5 µg/mL (≈ 94.3 µM)	CC(C)c1ccc(N(CC(=O)N2CCN(Cc3ccccc3)CC2)S(C)(=O)=O)cc1
> 43.4 µg/mL	COc1ccccc1CNC(=O)COC(=O)c1ccco1
> 50.6 µg/mL	COc1ccc(-c2ccc(CCC(=O)O)n2-c2ccccc2O)cc1
> 46.1 µg/mL	CCCC(=O)Nc1ccc(C2C(=O)c3ccccc3C2=O)cc1
3.6 µg/mL (≈ 9.99 µM)	Cc1ccc(NC(=O)c2ccc(S(=O)(=O)N3CCOCC3)cc2)cc1
36.4 µg/mL (≈ 144 µM)	N#CCc1ccc(OC(=O)Nc2ccccc2)cc1
1.8 µg/mL (≈ 6.47 µM)	N#Cc1ccc(OCC(=O)N2CCc3ccccc32)cc1
3.8 µg/mL (≈ 14.6 µM)	Cc1nc(N2CCCCC2)c(C#N)c(C)c1[N+](=O)[O-]
> 54.6 µg/mL	CC1CNCCN1S(=O)(=O)c1cccc2cnccc12.Cl (stereo not given)
> 41.4 µg/mL	CC(=O)Nc1ccc(OCC(O)Cn2cncn2)cc1 (stereo not given)
> 40.1 µg/mL	Nc1ncnc2c1ncn2C1OC(CO)C(O)C1O (stereo not given)
1.8 µg/mL (≈ 6.08 µM)	CNC(=O)c1cc(C(=O)c2ccc(C(F)(F)F)cc2)c[nH]1
9.8 µg/mL (≈ 28.3 µM)	COc1ccccc1CSc1nc2c(c(=O)n(C)c(=O)n2C)n1C
> 44.5 µg/mL	COc1ccc2nc(C)cc(NCc3ccc(F)cc3)c2c1
> 43.5 µg/mL	Cc1ccc2c(c1)N(CC(=O)N1CCOCC1)C(=O)CO2
> 49.1 µg/mL	CCN1CCCC1CNc1ccc(S(C)(=O)=O)cc1[N+](=O)[O-] (stereo not given)
> 38.3 µg/mL	CN1CCN(C(=O)/C=C/c2ccc(C#N)cc2)CC1
2.2 µg/mL (≈ 9 µM)	CCCCNC(=O)c1cc2c(C)cc(C)cc2[nH]1

solubility kinetic	SMILES
> 46 µg/mL	Cc1ccc(/C=C/C(=O)Nc2ccc(S(N)(=O)=O)cc2)o1
> 48.1 µg/mL	Cc1ccc(S(=O)(=O)/N=C(/c2ccc(F)cc2)N(C)C)cc1
32.5 µg/mL (≈ 129 µM)	COCc1cc(OC)nc(-c2csc(C)n2)n1
37.4 µg/mL (≈ 144 µM)	N/C(=N\OC(=O)c1cccc(F)c1)c1ccccn1
5.4 µg/mL (≈ 13.1 µM)	CN1CCN(S(=O)(=O)c2ccc(N(C)Cc3c(F)cccc3Cl)nc2)CC1
1.3 µg/mL (≈ 5.07 µM)	Fc1ccc(-c2csc(-c3ccncc3)n2)cc1
5.4 µg/mL (≈ 15.2 µM)	COc1cccc(OC)c1C(=O)NC(=O)Nc1c(F)cc(F)cc1F
1.4 µg/mL (≈ 5.76 µM)	Cc1ccc(N/C=C/C(=O)c2ccco2)c(O)c1
0.7 µg/mL (≈ 2.32 µM)	O=[N+]([O-])c1ccc(N2CCN(c3ccccc3F)CC2)nc1
1.5 µg/mL (≈ 6.16 µM)	CNc1nccc(-c2ccc(Cl)cc2)c1C#N
7.7 µg/mL (≈ 21.5 µM)	Cc1ccc(NC(=O)CN2CCN(Cc3ccccc3)CC2)cc1Cl
0.9 µg/mL (≈ 2.85 µM)	O=C(Nc1cccnc1Cl)c1cc(-c2ccccc2O)on1
32 µg/mL (≈ 138 µM)	CC1=NOC(=O)/C1=C\c1ccc2c(c1)OCO2
> 48.7 µg/mL	C=CCN(CC=C)CC(=O)Nc1cccc(Oc2cnccn2)c1
4.8 µg/mL (≈ 11.9 µM)	O=C(CN1C(=O)C2CC=CCC2C1=O)Nc1nc(-c2ccc(F)c(F)c2)cs1 (stereo not given)
< 0.2 µg/mL	Cc1ccc(NC(=O)c2ccccc2NC(=O)c2cccnc2)cc1
3 µg/mL (≈ 12.2 µM)	CC(=O)c1sc(Nc2cccc(C)c2)nc1C
> 46.8 µg/mL	Cc1nc2sc3c(c2c(=O)n1NC(=O)CCl)CCCC3
> 35.3 µg/mL	COc1ccccc1CNC(=O)/C=C/C(=O)O

SMILES	solubility kinetic
Cc1ccc(CNc2ncc(-c3ccccc3)n2C)o1.O=C(O)C(=O)O	> 53.6 µg/mL
